Measured values published in publication PMC9386018, “A lymphatic-absorbed multi-targeted kinase inhibitor for myelofibrosis therapy” (Nature Communications, 2022).

How the values were obtained:
[1] = target: 321 human protein kinases (Homo sapiens, UniProt O14986); assay: Single-point broad panel kinome screening (SelectScreen Z'-LYTE and Adapta); assay type: biochemical; conditions: PIP5K1B; […] LP-182; [ATP] 10 μM
Method: (§1) Quantitation of kinase inhibition was carried out by Life Technologies (Madison, WI) using the SelectScreen profiling platforms Z’-LYTE^TM and Adapta^TM. Single-point broad panel kinome screening was performed at 2.5 µM LP-182 against all kinases within the Z’-LYTE^TM and Adapta^TM assays (321 kinase isoforms, holoenzymes, or mutant variants). The average percent kinase inhibition from replicate data was ranked low to high, converted to a compatible identifier format, then input into Coral Human Kinome Visualization software for presentation analysis. […] Scaling of evolutionary distance for PI kinases is only relative and is based on literature analysis[62],[63]. Average percent kinome inhibition values from replicate data are supplied in Source Data file. […]. Corrected data was normalized to vehicle treated control values, and dose response percent kinase activity was analyzed by non-linear regression for determination of IC50 values.

[2] = target: 321 human protein kinases (Homo sapiens, UniProt O15530); assay: as above; assay type: biochemical; conditions: PDK1; […] LP-182; [ATP] 100 μM
Method: as §1

[3] = target: 321 human protein kinases (Homo sapiens, UniProt O60331); assay: as above; assay type: biochemical; conditions: PIP5K1C; […] LP-182; [ATP] 10 μM
Method: as §1

[4] = target: 321 human protein kinases (Homo sapiens, UniProt P42356); assay: as above; assay type: biochemical; conditions: PI4KA (PI4K alpha); […] LP-182; [ATP] 10 μM
Method: as §1

[5] = target: 321 human protein kinases (Homo sapiens, UniProt P45983); assay: as above; assay type: biochemical; conditions: MAPK8 (JNK1); […] LP-182; [ATP] 100 μM
Method: as §1

[6] = target: 321 human protein kinases (Homo sapiens, UniProt P45984); assay: as above; assay type: biochemical; conditions: MAPK9 (JNK2); […] LP-182; [ATP] 100 μM
Method: as §1

[7] = target: 321 human protein kinases (Homo sapiens, UniProt P52564); assay: as above; assay type: biochemical; conditions: MAP2K6 (MKK6); […] LP-182; [ATP] 100 μM
Method: as §1

[8] = target: 321 human protein kinases (Homo sapiens, UniProt Q16539); assay: as above; assay type: biochemical; conditions: MAPK14 (p38 alpha); […] LP-182; [ATP] 100 μM
Method: as §1

[9] = target: 321 human protein kinases (Homo sapiens, UniProt Q99755); assay: as above; assay type: biochemical; conditions: PIP5K1A; […] LP-182; [ATP] 10 μM
Method: as §1

[10] = tested on: phosphorylated AKT (pAKT; pS473) in SET-2 cells; assay: Phospho-flow cytometry of pAKT in SET-2 cells; assay type: cell-based, human; conditions: 5 μM, 16 h
Method: (§2) The human megakaryoblastic cell line, SET-2 (ATCC), was maintained in RPMI 1640 supplemented with 20% FBS and incubated for 16 h at 10^6 cells mL^−1 with LP-182 or vehicle (DMSO; dimethyl sulfoxide), then washed in ice-cold PBS, and collected for flow cytometry analysis. Single-cell suspensions of mouse spleen were prepared from MPL^W515L MF mice (below) in RPMI 1640 supplemented with 5% FCS. Red blood cells were lysed by ammonium chloride-mediated red cell lysis (RCL) buffer and passed through a nylon mesh, and then cells were counted. For intracellular phospho-protein staining, SET-2 or spleen cells were fixed and then permeabilized using BD Phospho-flow fixation buffer and Perm-Buffer III (BD biosciences) according to the manufacturer’s protocol. Intracellular phospho-protein staining was performed using fluorochrome-conjugated antibodies, pAKT (pS473)-Alexa Fluor 647 (MB89-61) or pERK1/2 (pT202/pY204)-Alexa Fluor 647 (20 A). All phospho-flow antibodies were purchased from BD Biosciences. […] Flow cytometry was performed on a FACS Fortessa (Becton, Dickinson and Co.) using FACSDiVa software, and data analyzed using FlowJo software (Tree Star). […]

[11] = tested on: GFP-positive MPL^W515L cells; assay: MPL^W515L MF mouse model Study 2: GFP-positive cell frequencies; assay type: in vivo; conditions: Study 2, MPL^W515L mice, oral 400 mg kg^−1 daily, 14 d
Method: as §2, with “A).” for “A). All phospho-flow antibodies were purchased from BD Biosciences.”
Generation of the MPL^W515L mutant MF mouse model was similar to previously described methods. […] Development of MF was evaluated by spleen volumes using MRI beginning ~14 d following bone marrow transplantation (BMT) as outlined below, continuing weekly until end of the study. […]

Sequence of 321 human protein kinases (Homo sapiens, UniProt O14986) (O14986 whole entry, canonical isoform): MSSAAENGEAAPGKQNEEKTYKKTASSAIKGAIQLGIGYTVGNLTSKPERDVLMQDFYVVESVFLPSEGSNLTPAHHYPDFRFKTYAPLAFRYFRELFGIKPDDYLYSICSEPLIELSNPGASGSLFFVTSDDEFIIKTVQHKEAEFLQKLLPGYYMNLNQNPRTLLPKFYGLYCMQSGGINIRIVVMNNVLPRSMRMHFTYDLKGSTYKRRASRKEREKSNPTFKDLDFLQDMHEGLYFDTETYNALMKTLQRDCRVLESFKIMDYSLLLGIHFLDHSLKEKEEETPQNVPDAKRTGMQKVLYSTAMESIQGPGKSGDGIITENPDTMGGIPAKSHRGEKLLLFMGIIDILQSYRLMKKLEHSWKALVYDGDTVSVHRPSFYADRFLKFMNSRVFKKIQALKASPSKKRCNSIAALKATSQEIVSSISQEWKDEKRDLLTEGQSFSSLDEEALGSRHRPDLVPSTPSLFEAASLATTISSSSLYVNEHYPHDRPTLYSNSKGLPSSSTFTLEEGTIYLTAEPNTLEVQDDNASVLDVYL
Sequence of 321 human protein kinases (Homo sapiens, UniProt Q16539) (Q16539 whole entry): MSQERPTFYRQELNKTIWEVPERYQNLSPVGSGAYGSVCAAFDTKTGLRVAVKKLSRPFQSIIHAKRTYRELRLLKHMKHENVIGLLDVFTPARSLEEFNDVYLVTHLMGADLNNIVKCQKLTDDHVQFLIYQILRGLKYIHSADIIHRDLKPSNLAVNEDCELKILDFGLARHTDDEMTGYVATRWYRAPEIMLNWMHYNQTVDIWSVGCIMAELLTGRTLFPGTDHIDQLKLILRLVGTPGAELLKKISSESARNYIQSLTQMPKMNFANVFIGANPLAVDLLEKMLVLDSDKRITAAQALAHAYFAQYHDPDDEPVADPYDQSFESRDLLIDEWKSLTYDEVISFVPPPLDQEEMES
Sequence of 321 human protein kinases (Homo sapiens, UniProt P52564) (P52564 whole entry): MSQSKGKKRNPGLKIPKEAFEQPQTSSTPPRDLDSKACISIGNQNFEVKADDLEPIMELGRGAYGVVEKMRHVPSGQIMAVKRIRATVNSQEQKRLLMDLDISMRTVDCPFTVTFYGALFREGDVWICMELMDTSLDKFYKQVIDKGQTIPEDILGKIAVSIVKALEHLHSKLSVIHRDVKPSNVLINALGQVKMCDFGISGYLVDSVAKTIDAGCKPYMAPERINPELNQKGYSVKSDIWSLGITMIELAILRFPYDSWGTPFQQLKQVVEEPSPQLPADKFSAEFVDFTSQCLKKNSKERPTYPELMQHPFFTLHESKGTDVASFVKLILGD
Sequence of 321 human protein kinases (Homo sapiens, UniProt P45984) (P45984 whole entry): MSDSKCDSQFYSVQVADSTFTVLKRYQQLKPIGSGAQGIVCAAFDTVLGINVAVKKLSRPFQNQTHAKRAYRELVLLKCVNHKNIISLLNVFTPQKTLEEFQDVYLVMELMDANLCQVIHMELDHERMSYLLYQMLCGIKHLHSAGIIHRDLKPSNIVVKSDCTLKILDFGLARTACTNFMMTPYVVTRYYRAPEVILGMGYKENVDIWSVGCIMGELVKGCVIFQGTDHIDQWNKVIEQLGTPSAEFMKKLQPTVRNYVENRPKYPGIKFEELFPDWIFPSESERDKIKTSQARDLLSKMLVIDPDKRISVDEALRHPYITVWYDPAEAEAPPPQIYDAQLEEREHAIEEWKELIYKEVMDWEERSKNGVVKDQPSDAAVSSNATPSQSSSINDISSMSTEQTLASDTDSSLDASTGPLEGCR
Sequence of 321 human protein kinases (Homo sapiens, UniProt Q99755) (Q99755 whole entry): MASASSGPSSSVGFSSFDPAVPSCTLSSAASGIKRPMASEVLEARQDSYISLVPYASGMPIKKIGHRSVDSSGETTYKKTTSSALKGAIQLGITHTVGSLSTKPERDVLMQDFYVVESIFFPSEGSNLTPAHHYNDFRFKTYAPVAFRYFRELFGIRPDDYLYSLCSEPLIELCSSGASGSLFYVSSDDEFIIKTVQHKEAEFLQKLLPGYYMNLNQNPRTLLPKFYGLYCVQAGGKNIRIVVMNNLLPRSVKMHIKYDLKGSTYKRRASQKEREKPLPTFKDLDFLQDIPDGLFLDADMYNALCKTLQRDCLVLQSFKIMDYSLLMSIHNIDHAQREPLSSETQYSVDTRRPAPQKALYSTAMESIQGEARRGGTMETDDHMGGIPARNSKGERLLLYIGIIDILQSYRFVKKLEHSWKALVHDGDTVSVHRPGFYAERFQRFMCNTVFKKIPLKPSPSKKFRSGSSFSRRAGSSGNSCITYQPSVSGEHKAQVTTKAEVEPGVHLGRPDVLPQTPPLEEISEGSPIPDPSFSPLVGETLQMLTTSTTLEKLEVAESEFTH
Sequence of 321 human protein kinases (Homo sapiens, UniProt O15530) (O15530 whole entry): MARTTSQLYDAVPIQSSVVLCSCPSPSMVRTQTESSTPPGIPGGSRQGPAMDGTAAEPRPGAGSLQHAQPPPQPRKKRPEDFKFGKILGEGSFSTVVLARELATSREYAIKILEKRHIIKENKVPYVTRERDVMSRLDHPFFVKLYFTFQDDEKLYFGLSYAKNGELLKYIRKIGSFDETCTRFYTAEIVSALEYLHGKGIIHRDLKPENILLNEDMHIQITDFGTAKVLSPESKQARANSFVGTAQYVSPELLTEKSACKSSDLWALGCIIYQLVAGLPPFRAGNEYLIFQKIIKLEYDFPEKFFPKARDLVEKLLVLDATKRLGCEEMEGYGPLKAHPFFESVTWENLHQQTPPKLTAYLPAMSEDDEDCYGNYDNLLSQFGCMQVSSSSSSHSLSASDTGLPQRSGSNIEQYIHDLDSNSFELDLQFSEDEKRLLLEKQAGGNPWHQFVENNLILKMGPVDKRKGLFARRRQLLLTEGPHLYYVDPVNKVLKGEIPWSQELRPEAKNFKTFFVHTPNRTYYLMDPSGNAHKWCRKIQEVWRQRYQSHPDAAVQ
Sequence of 321 human protein kinases (Homo sapiens, UniProt O60331) (O60331 whole entry): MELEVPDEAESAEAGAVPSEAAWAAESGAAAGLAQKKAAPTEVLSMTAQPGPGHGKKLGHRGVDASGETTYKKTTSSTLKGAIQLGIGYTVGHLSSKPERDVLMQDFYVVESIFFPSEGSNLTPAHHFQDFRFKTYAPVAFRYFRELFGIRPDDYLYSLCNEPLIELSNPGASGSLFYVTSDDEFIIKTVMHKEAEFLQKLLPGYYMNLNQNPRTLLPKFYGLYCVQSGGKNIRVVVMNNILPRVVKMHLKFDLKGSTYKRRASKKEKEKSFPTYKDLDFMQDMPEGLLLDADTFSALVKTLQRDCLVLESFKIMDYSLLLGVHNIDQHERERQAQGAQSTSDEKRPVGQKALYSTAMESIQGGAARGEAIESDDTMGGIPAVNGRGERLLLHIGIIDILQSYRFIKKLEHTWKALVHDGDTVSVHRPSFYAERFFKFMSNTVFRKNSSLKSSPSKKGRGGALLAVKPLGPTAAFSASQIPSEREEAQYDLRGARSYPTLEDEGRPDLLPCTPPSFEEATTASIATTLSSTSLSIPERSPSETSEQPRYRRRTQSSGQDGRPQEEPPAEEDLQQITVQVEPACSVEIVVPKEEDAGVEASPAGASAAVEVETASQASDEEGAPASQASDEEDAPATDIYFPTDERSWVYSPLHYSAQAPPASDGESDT
Sequence of 321 human protein kinases (Homo sapiens, UniProt P45983) (P45983 whole entry): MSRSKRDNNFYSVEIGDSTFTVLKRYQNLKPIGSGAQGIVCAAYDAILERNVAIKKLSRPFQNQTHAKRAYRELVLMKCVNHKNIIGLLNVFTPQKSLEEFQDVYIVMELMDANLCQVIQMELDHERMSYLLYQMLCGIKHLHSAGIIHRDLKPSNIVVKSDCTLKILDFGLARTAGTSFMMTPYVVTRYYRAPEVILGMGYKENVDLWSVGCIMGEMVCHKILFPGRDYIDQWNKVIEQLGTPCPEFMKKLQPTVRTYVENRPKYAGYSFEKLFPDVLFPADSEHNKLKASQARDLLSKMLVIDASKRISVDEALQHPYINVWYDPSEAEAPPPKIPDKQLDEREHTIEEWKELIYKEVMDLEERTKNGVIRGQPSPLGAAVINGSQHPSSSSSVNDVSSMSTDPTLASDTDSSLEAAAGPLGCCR

O=C(NOCCOCCOCCOCCC(=O)N1CCN(c2cnc3ccc(-c4cnc(Cl)c(NS(=O)(=O)c5ccc(F)cc5)c4)cc3n2)CC1)c1ccc(F)c(F)c1Nc1ccc(I)cc1F [LP-182, N-(2-(2-(2-(3-(4-(7-(6-chloro-5-((4-fluorophenyl)sulfonamido)pyridin-3-yl)quinoxalin-2-yl)piperazin-1-yl)-3-oxopropoxy)ethoxy)ethoxy)ethoxy)-3,4-difluoro-2-((2-fluoro-4-iodophenyl)amino)benzamide]
% Inhibition [1]: 14%
inhibition at […] [1]: 13%
inhibition at […] [2]: 15%
inhibition at […] [3]: 28%
inhibition at […] [4]: 24%
inhibition at […] [5]: 15%
inhibition at […] [6]: 2.22%
inhibition at […] [7]: 16%
inhibition at […] [8]: 22%
inhibition at […] [9]: 26%
decrease of downstream activation of AKT [10]: ~ 50%
GFP-positive MPL^W515L neutrophil frequency [11]: reduced
